{
  "source": "patent US20060188573A1",
  "about": "“Composite materials and particles” (priority 2003, published 2006)",
  "system": "blood",
  "test": "Blood compatibility: coagulation",
  "settings": "4.0 ml blood added, circulating at 37 degrees C. for 60 minutes in heparin-coated tubes; duplicate",
  "method": "The lipid/polymer hybrid particles have been characterized with respect to coagulation and hemolyse. Briefly, the experiments were carried out as follows:\nCoagulation: Solvent/water mixture, with the same ratio used for particle formation, was used as negative control. Other samples were pure polymer, pure lipid, lipid/polymer composite particles and Taxol. Taxol was used as positive control. All experiments were carried out in dublicate.4.0 ml blood were added to each sample before the samples were circulating, at 37 degrees C. for 60 minutes, in tubes with the inside coated with heparin.",
  "data": [
    {"smiles": "CCCCCCCC/C=C\\CCCCCCCC(=O)OCC(O)CO", "note": "(stereo not shown) [pure lipid, glyceryl-mono-oleate]", "values": [
      {"measurement": "coagulation", "result": "no coagulation"}
    ]}
  ]
}
